Reference: PubChem BioAssay AID328 (DTP/NCI, 2004)
“And” between values parts separate entries of the source, which are not always exact repeats. Identical values can stand only once. Toxic doses and inconclusive results are not listed.

Tested on: BDF1 mice, P388 leukemia ip, median survival T/C
Assay: NCI In Vivo Anticancer Drug Screen. Data for tumor model P388 Leukemia (intraperitoneal) in B6D2F1 (BDF1) mice
Conditions: endpoint: median survival time, higher = longer survival
Outline: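 T/C = treated-group survival ÷ vehicle-control survival; tumour transplanted into mice before dosing.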

[1] = dose: 50.0 mg/kg/injection, schedule: Q04DX003 (ip), vehicle: Klucel (hydroxypropylcellulose) (HPC)
[2] = dose: 100.0 mg/kg/injection, schedule: Q04DX003 (ip), vehicle: Klucel (hydroxypropylcellulose) (HPC)
[3] = dose: 25.0 mg/kg/injection, schedule: Q04DX003 (ip), vehicle: saline with Tween-80
[4] = dose: 50.0 mg/kg/injection, schedule: Q01DX009 (ip), vehicle: saline with Tween-80
[5] = dose: 50.0 mg/kg/injection, schedule: Q04DX003 (ip), vehicle: saline with Tween-80
[6] = dose: 100.0 mg/kg/injection, schedule: Q01DX009 (ip), vehicle: saline with Tween-80
[7] = dose: 100.0 mg/kg/injection, schedule: Q04DX003 (ip), vehicle: saline with Tween-80
[8] = dose: 200.0 mg/kg/injection, schedule: Q01DX009 (ip), vehicle: saline with Tween-80
[9] = dose: 200.0 mg/kg/injection, schedule: Q04DX003 (ip), vehicle: saline with Tween-80
[10] = dose: 400.0 mg/kg/injection, schedule: Q04DX003 (ip), vehicle: saline with Tween-80
[11] = dose: 25.0 mg/kg/injection, schedule: Q01DX009 (ip), vehicle: saline
[12] = dose: 25.0 mg/kg/injection, schedule: Q01DX009 (ip), vehicle: Klucel (hydroxypropylcellulose) (HPC)
[13] = dose: 50.0 mg/kg/injection, schedule: Q01DX009 (ip), vehicle: Klucel (hydroxypropylcellulose) (HPC)
[14] = dose: 100.0 mg/kg/injection, schedule: Q01DX009 (ip), vehicle: Klucel (hydroxypropylcellulose) (HPC)

In the case of `CC1=C/C(=N/NC(N)=O)CC(C)C1` (centres undefined), the T/C [1] is reported as 100 % of control, the T/C [2] is reported as 105 % of control and the T/C (dose: 200.0 mg/kg/injection, schedule: Q04DX003 (ip), vehicle: Klucel (hydroxypropylcellulose) (HPC)) is reported as 100 % of control.
`Cc1c(C)c(O)c2c(c1O)C(=O)C=C(Cl)C2=O` was tested, and the T/C (dose: 6.25 mg/kg/injection, schedule: Q04DX003 (ip), vehicle: saline with Tween-80) was 121 % of control, the T/C (dose: 12.5 mg/kg/injection, schedule: Q04DX003 (ip), vehicle: saline with Tween-80) was 119 % of control and 120 % of control and the T/C [3] was 110 % of control and 120 % of control.
For `COc1cccc(C)c1NC1=NCCO1`, the T/C (dose: 1.56 mg/kg/injection, schedule: Q04DX003 (ip), vehicle: saline with Tween-80) was 117 % of control.
In the case of `Cc1cc(S(=O)(=O)c2ccc(Cl)cc2)nc(S(=O)(=O)c2ccc(Cl)cc2)c1C#N`, the T/C (dose: 50.0 mg/kg/injection, schedule: Q01DX005 (ip), vehicle: saline with Tween-80) is reported as 110 % of control and the T/C (dose: 100.0 mg/kg/injection, schedule: Q01DX005 (ip), vehicle: saline with Tween-80) is reported as 110 % of control.
For `COc1cc(C(=O)N(CCCl)N=O)cc(OC)c1OC`, the T/C [3] was 100 % of control, the T/C [4] was 100 % of control and the T/C [5] was 100 % of control. For the same compound, the T/C [6] was 100 % of control, the T/C [7] was 100 % of control and 109 % of control and the T/C [8] was 100 % of control. For the same compound, the T/C [9] was 100 % of control and the T/C [10] was 109 % of control.
For `Cc1ccc(N(OC(=O)c2ccccc2)C(C)(C)C)cc1`, the T/C (dose: 25.0 mg/kg/injection, schedule: Q04DX002 (ip), vehicle: saline with Tween-80) was 93 % of control, the T/C (dose: 50.0 mg/kg/injection, schedule: Q04DX002 (ip), vehicle: saline with Tween-80) was 109 % of control and the T/C (dose: 100.0 mg/kg/injection, schedule: Q04DX002 (ip), vehicle: saline with Tween-80) was 111 % of control and 113 % of control.
In the case of `CCCCCOC(CN)C(Cl)(Cl)Cl` (centres undefined), the T/C [11] is reported as 115 % of control, the T/C (dose: 33.0 mg/kg/injection, schedule: Q01DX009 (ip), vehicle: saline) is reported as 100 % of control and 118 % of control and the T/C (dose: 50.0 mg/kg/injection, schedule: Q01DX009 (ip), vehicle: saline) is reported as 113 % of control and 122 % of control. The T/C (dose: 75.0 mg/kg/injection, schedule: Q01DX009 (ip), vehicle: saline) was 109 % of control.
In the case of `COC1(c2cccs2)OC1(C)C` (centres undefined), the T/C [6] is reported as 95 % of control, the T/C [7] is reported as 100 % of control and the T/C [8] is reported as 95 % of control. For the same compound, the T/C [9] was 91 % of control, the T/C (dose: 400.0 mg/kg/injection, schedule: Q01DX009 (ip), vehicle: saline with Tween-80) was 95 % of control and the T/C [10] was 104 % of control.
With `CCCCCCCC(=O)[O][Hg][CH2]C1COC([CH2][Hg][O]C(=O)CCCCCCC)CO1` (centres undefined) the T/C (dose: 12.5 mg/kg/injection, schedule: Q01DX009 (ip), vehicle: saline sonified) was 110 % of control and the T/C (dose: 50.0 mg/kg/injection, schedule: Q04DX003 (ip), vehicle: saline sonified) was 116 % of control.
In the case of `CN1C(=O)C23CC4=CC=CC(O)C4N2C(=O)C1(CO)SS3` (centres undefined), the T/C (dose: 0.19 mg/kg/injection, schedule: Q01DX009 (ip), vehicle: saline with Tween-80) is reported as 100 % of control, the T/C (dose: 0.38 mg/kg/injection, schedule: Q01DX009 (ip), vehicle: saline with Tween-80) is reported as 100 % of control and the T/C (dose: 0.75 mg/kg/injection, schedule: Q01DX009 (ip), vehicle: saline with Tween-80) is reported as 108 % of control and 109 % of control.
In the case of `NNC(=O)C(=O)NCc1ccco1`, the T/C [4] is reported as 98 % of control.
`Cc1cnc(Cl)nc1Sc1nc(N)nc2nc[nH]c12` was tested, and the T/C (dose: 6.0 mg/kg/injection, schedule: Q01DX009 (ip), vehicle: saline with Tween-80) was 184 % of control, the T/C (dose: 33.0 mg/kg/injection, schedule: Q04DX003 (ip), vehicle: saline with Tween-80) was 118 % of control and the T/C [5] was 122 % of control. The T/C (dose: 75.0 mg/kg/injection, schedule: Q04DX003 (ip), vehicle: saline with Tween-80) was 109 % of control and the T/C [7] was 100 % of control.
`CCOC(=O)N(C)c1ccccc1` was tested, and the T/C [12] was 95 % of control, the T/C (dose: 25.0 mg/kg/injection, schedule: Q04DX003 (ip), vehicle: Klucel (hydroxypropylcellulose) (HPC)) was 92 % of control and the T/C [13] was 91 % of control. For the same compound, the T/C [1] was 96 % of control, the T/C [14] was 87 % of control and the T/C [2] was 92 % of control.
With `CN(C)c1ccc(C2N(Cc3ccccc3)CCC3CCCCN32)cc1` (centres undefined) the T/C [4] was 99 % of control and the T/C [6] was 92 % of control.
With `O=CC(Cl)Cl` the T/C (dose: 25.0 mg/kg/injection, schedule: Q04DX003 (ip), vehicle: saline) was 100 % of control, the T/C (dose: 50.0 mg/kg/injection, schedule: Q04DX003 (ip), vehicle: saline) was 95 % of control and the T/C (dose: 100.0 mg/kg/injection, schedule: Q04DX003 (ip), vehicle: saline) was 100 % of control.
In the case of `CN(C)CCCn1c(=O)c2ccccc2c2ccccc21`, the T/C (dose: 12.5 mg/kg/injection, schedule: Q01DX010 (ip), vehicle: saline) is reported as 90 % of control, the T/C (dose: 25.0 mg/kg/injection, schedule: Q01DX010 (ip), vehicle: saline) is reported as 90 % of control and the T/C (dose: 50.0 mg/kg/injection, schedule: Q01DX010 (ip), vehicle: saline) is reported as 90 % of control.
In the case of `[O-][n+]1ccc(Cl)c2ccsc21`, the T/C [5] is reported as 95 % of control, the T/C [7] is reported as 95 % of control and the T/C [9] is reported as 90 % of control and 104 % of control. The T/C [10] was 86 % of control.
In the case of `CCOc1c([N+](=O)[O-])cc([N+](=O)[O-])c2ccccc12`, the T/C (dose: 25.0 mg/kg/injection, schedule: Q01DX009 (ip), vehicle: saline with Tween-80) is reported as 96 % of control, the T/C [4] is reported as 96 % of control and the T/C [6] is reported as 93 % of control.
`S=C(/N=C1\CCC\C1=C/c1ccccc1)/N=C1\CCC\C1=C/c1ccccc1` was tested, and the T/C [7] was 100 % of control, the T/C [9] was 109 % of control and the T/C [10] was 115 % of control.
With `C=C(NC(C)=O)C(=O)O` the T/C (dose: 20.0 mg/kg/injection, schedule: Q04DX003 (ip), vehicle: Klucel (hydroxypropylcellulose) (HPC)) was 108 % of control, the T/C [12] was 104 % of control and the T/C (dose: 40.0 mg/kg/injection, schedule: Q04DX003 (ip), vehicle: Klucel (hydroxypropylcellulose) (HPC)) was 108 % of control. The T/C [13] was 104 % of control, the T/C (dose: 80.0 mg/kg/injection, schedule: Q04DX003 (ip), vehicle: Klucel (hydroxypropylcellulose) (HPC)) was 86 % of control and the T/C [14] was 90 % of control. The T/C [2] was 95 % of control.
`O=C(O)c1occ(Cl)c1Cl` was tested, and the T/C (dose: 0.78 mg/kg/injection, schedule: Q01DX009 (ip), vehicle: water) was 100 % of control, the T/C (dose: 1.56 mg/kg/injection, schedule: Q01DX009 (ip), vehicle: water) was 98 % of control and the T/C (dose: 3.12 mg/kg/injection, schedule: Q01DX009 (ip), vehicle: water) was 97 % of control. The T/C (dose: 6.25 mg/kg/injection, schedule: Q01DX009 (ip), vehicle: water) was 97 % of control, the T/C (dose: 12.5 mg/kg/injection, schedule: Q01DX009 (ip), vehicle: water) was 94 % of control and the T/C (dose: 25.0 mg/kg/injection, schedule: Q01DX009 (ip), vehicle: water) was 94 % of control. The T/C (dose: 50.0 mg/kg/injection, schedule: Q01DX009 (ip), vehicle: water) was 106 % of control, the T/C (dose: 50.0 mg/kg/injection, schedule: Q04DX003 (ip), vehicle: water) was 96 % of control and the T/C (dose: 100.0 mg/kg/injection, schedule: Q04DX003 (ip), vehicle: water) was 104 % of control. The T/C (dose: 200.0 mg/kg/injection, schedule: Q04DX003 (ip), vehicle: water) was 119 % of control.
In the case of `O=C(O)C1C2C=CC(C2)C1C(F)(F)C(F)(F)C(F)(F)F` (centres undefined), the T/C (dose: 100.0 mg/kg/injection, schedule: Q01DX001 (ip), vehicle: saline with Tween-80) is reported as 100 % of control, the T/C (dose: 200.0 mg/kg/injection, schedule: Q01DX001 (ip), vehicle: saline with Tween-80) is reported as 104 % of control and the T/C (dose: 400.0 mg/kg/injection, schedule: Q01DX001 (ip), vehicle: saline with Tween-80) is reported as 118 % of control.
In the case of `O=C1c2ccccc2C(=O)N1CN1C(=O)c2ccccc2C1=O`, the T/C [5] is reported as 95 % of control, the T/C [7] is reported as 90 % of control and the T/C [9] is reported as 86 % of control.
In the case of `O=C(NCc1ccco1)C(=O)NCc1ccco1`, the T/C [4] is reported as 87 % of control, the T/C [6] is reported as 90 % of control and the T/C [8] is reported as 98 % of control.
For `CCCCN(CCCC)P(=O)(N1CC1)N1CC1`, the T/C (dose: 16.5 mg/kg/injection, schedule: Q01DX009 (ip), vehicle: saline) was 250 % of control, the T/C [11] was 118 % of control and the T/C (dose: 37.5 mg/kg/injection, schedule: Q01DX009 (ip), vehicle: saline) was 113 % of control.
`CCCCOCN(COCCCC)c1cccc(Cl)c1` was tested, and the T/C [4] was 100 % of control, the T/C [6] was 106 % of control and the T/C [8] was 117 % of control.
`C=C1CC(OC(C)=O)C2C(OC(=O)C2(C)OC(=O)/C(C)=C\C)C2C(C)=CC(=O)C12` (centres undefined) was tested, and the T/C (dose: 4.0 mg/kg/injection, schedule: Q01DX009 (ip), vehicle: Klucel (hydroxypropylcellulose) (HPC)) was 100 % of control and the T/C (dose: 8.0 mg/kg/injection, schedule: Q01DX009 (ip), vehicle: Klucel (hydroxypropylcellulose) (HPC)) was 109 % of control.
